Holding throughout (format): in vivo, human
The subject of one assay is AIDS. Description: AIDS infected and immunosuppressed individuals.
Assay [1] is described as follows: Pyoderma patients (furunculitis, cellulitis, folliculitis). The following applies: IM or intranasally 5 days. The procedure:
Patients with pyoderma, including furunculitis, cellulitis, and folliculitis, are treated with Ile-Trp with a control group which is not treated with Ile-Trp. Medications are administered either IM or intranasally for 5 consecutive days. […] Clinical improvement correlate with immunological indices correction. Administration IM, intranasally, or topically as a sterile saline, solution of medication for a period of 5 to 10 days at a concentration of 1 μg/kg body weight.
Medications were administered either IM or intranasally for 5 consecutive days. […] Clinical improvement correlated with immunological indices correction. Administration IM, intranasally, or topically as a sterile saline solution of medication for a period of 5 to 10 days at a concentration of 1 μg/kg body weight.

Another assay in a line: Acne vulgaris patients. From the text:
A number of patients within the group patients afflicted with furunculitis, pyoderma, cellulitis, and folliculitis are afflicted with acne vulgaris and acne. […] The clinical outcome correlates with the correction of immunological indices, and relapses are controlled.
A number of patients within the group of 159 patients afflicted with furunculitis, pyoderma, cellulitis, and folliculitis were afflicted with acne vulgaris and acne. […] The clinical outcome correlated with the correction of immunological indices, and relapses were controlled.

The next assay relates to Herpes Zoster. Description: Herpes Zoster patients, with interferon. The following applies: for clinical effect: 100 μg, 10 days. The method, then: Patients with Herpes Zoster are treated with Ile-Trp in combination with conventional interferon treatment and some control patients with interferon alone. […] There is noted prevention of relapses, and some healing occurred earlier than control groups. Immunological indices correlates with clinical outcome.
There was noted prevention of relapses, and healing occurred on the average 40% earlier than control groups. Immunological indices correlated with clinical outcome.

Assay [2] is described as follows: Gingival disease patients. The procedure:
Patients are treated for gingival disease by subcutaneous administration of Ile-Trp in the area of the gingiva. […] Administration of 100 μg IM, subcutaneously, or by electrophoresis (whereby a small voltage charge to the gums results in a rapid transfer of medication through the gum epithelium) results in the arresting of bleeding, more rapid restoration of inflammatory processes, and the decrease of purulent discharge. The treatment results in fewer recurrences and prolongation of normal gums.

A short description of a further assay: Periapical granulomas. Particulars: 3 days. The method, then: Patients with periapical granulomas treated with Ile-Trp are tested.
Another assay can be described thus: Lymphangitis.
Another assay deals with viral infection. Description: Acute respiratory disease patients. The method, then:
Patients with acute respiratory disease, including upper airway diseases, such as colds, are treated with Ile-Trp. […] Secondary infectious complications are diminished, and the duration of the treatment is also diminished.
There was noted a decrease in the specific signs of upper respiratory infections such rhinorrhea, sore throat, fever, muscle aches, headaches, and ear pain. Secondary infectious complications were diminished, and the duration of the treatment was also diminished.

A short description of assay [3]: Sinus disease patients (Examples 14, 63). Particulars: 3-10 days. An excerpt:
The decrease of treatment duration up to 1.7 times compared to controls.

Assay [4] is described as follows: Patients with various allergies.
The next assay in a line: Chronic osteomyelitis. The method, then: Ile-Trp is prescribed to patients with chronic osteomyelitis of various etiology and localization. Ile-Trp is administered IM or intranasally single daily at 100 μg for 10 days.
The control group comprised 88 patients.

A short description of a further assay: Cutaneous burns. The method, then:
Patients with cutaneous burns are treated with Ile-Trp either IM or intranasally.

Assay [5] can be described thus: Frostbite to the extremities. The procedure: Patients with frostbite to the extremities are treated with Ile-Trp either IM or intranasally.
A short description of assay [6]: Deformity and scarring after injuries.
Assay [7] is described as follows: Chemotherapy complications and side effects.
In another assay the test system is flu. Particulars: 3 days, with anti-flu vaccination.
A short description of the next assay: Toxemia of pregnancy. The method, then: Ile-Trp is applied in pregnant women with Toxemia of first and second half of pregnancy. Ile-Trp is administered IM and intranasally at 100 μg daily for 5-10 days. It is observed that the BP normalized, and peripheral edema is reduced with normalization of the blood chemistry profile, and the restoration of initially altered immunologic indices.
The control group comprised 54 patients.

In another assay the test system is leprosy. Description: Leprosy (Hansen's disease).
The next assay deals with tropical malaria. Nature of the assay: Relapsing tropical malaria. The procedure: Patients are studied who have relapsing forms of tropical malaria, moderate to severe, and severe cases with 21 patients in the control group. Ile-Trp is administered at 100 μg single daily doses Im or intranasally for 5-10 days.
A total of 33 patients were studied with patients who had relapsing forms of tropical malaria, moderate to severe, and severe cases with 21 patients in the control group.

For another assay, the system named is TB bacilli. The following applies: 5 doses.

Where two headings read alike, the source gives them in different places.

Take Ile-Trp: in the assay on AIDS (Ile-Trp, AIDS infected individuals), the “immunologic indices, T-cell functional activity, T4/T8 ratios” value is given as “restoring normal immunologic indices”. For the same substance, the immunological indices result in the assay with AIDS (Ile-Trp, immunosuppressed individuals with radiation injuries) was “excellent restoration of immunological indices”; in “Acne vulgaris patients” (Ile-Trp group), “corrected and normalized rapidly”. Besides, the clinical effect result is reported as “Immunological indices are normalized with disappearance of skin manifestations” in [1] (Ile-Trp); “accelerated regression of foci of herpetic infection” in the assay with Herpes Zoster (Ile-Trp with interferon); “arresting of gingival disease” in assay [2] (Ile-Trp, subcutaneous in the gingiva); “accelerated arrestation of the inflammatory process” in “Periapical granulomas” (Ile-Trp 100 μg instillation); “controls the advance of lymphangitis” in “Lymphangitis” (Ile-Trp 100 μg); “milder course of the viral infection” in the assay on viral infection (Ile-Trp 100 μg 3-7 days). Moreover, the clinical effect entry in [3] (Ile-Trp 1 μg/kg) was “normalization of nasal breathing”; in [4] (Ile-Trp 1 μg/kg 5-7 days), “disappearance of allergic reactions”; in the assay “Chronic osteomyelitis” (Ile-Trp 100 μg 10 days), “pronounced positive influence on clinical course”; in the assay “Cutaneous burns” (Ile-Trp IM or intranasally) it was “Accelerated wound healing, diminished frequency of infections, and less eschar”; in assay [5] (Ile-Trp IM or intranasally) it was “Rapid healing and restoration of tissue integrity”; in assay [6] (Ile-Trp IM or intranasally), “less deformity and scarring”. In addition, the clinical effect entry in assay [7] (Ile-Trp during chemotherapy) is “fewer complications and side effects related to chemotherapy”; in “Toxemia of pregnancy” (Ile-Trp 100 μg daily 5-10 days), “BP normalized”; in the assay on leprosy (Ile-Trp 100 μg 5 days with conventional therapy), “resolution of the lesions”; with tropical malaria (Ile-Trp 100 μg 5-10 days), “reduction of hepatolineal syndrome”; in the assay on TB bacilli (Ile-Trp 50 to 100 μg every other day, with conventional therapy), “disappearance of toxic symptoms”. In the assay with flu (Ile-Trp 50 μg), the “sickness rate for 12 months” value is reported as “significant decrease of sickness rate”.

As for Glu-Trp [IM862], the immunological indices result in the assay with AIDS (IM862, immunosuppressed individuals with radiation injuries) was “excellent restoration of immunological indices”; in “Acne vulgaris patients” (IM862 group), “corrected and normalized rapidly”. The “comparison with TPI as cell mediator” value in the assay on AIDS (IM862 vs TPI) was “far more effective cell mediator”. In addition, the clinical effect result was “Immunological indices were normalized with disappearance of skin manifestations” in assay [1] (IM862, 159 patients); “accelerated regression of foci of herpetic infection” in the assay on Herpes Zoster (IM862 with interferon, 37 patients); “arresting of gingival disease” in assay [2] (IM862, subcutaneous in the gingiva); “accelerated arrestation of the inflammatory process” in “Periapical granulomas” (IM862 100 μg instillation, 46 patients); “controls the advance of lymphangitis” in the assay “Lymphangitis” (IM862 100 μg); “milder course of the viral infection” in the assay on viral infection (IM862 100 μg 3-7 days, 186 patients). Moreover, the clinical effect entry in [3] (IM862 1 μg/kg, 51 patients) is “normalization of nasal breathing”; in [4] (IM862 1 μg/kg 5-7 days, 29 patients), “disappearance of allergic reactions”; in the assay “Chronic osteomyelitis” (IM862 100 μg 10 days, 176 patients) it was “pronounced positive influence on clinical course”; in the assay “Cutaneous burns” (IM862 IM or intranasally, 23 patients) it was “Accelerated wound healing, diminished frequency of infections, and less eschar”; in assay [5] (IM862 IM or intranasally, 17 patients), “rapid healing and restoration of tissue integrity”; in assay [6] (IM862 IM or intranasally), “less deformity and scarring”. In addition, the clinical effect entry was “fewer complications and side effects related to chemotherapy” in assay [7] (IM862 during chemotherapy); “BP normalized” in “Toxemia of pregnancy” (IM862 100 μg daily 5-10 days, 97 women); “resolution of the lesions” in the assay with leprosy (IM862 100 μg 5 days with conventional therapy, 45 patients); “reduction of hepatolineal syndrome” with tropical malaria (IM862 100 μg 5-10 days, 33 patients); “disappearance of toxic symptoms” in the assay with TB bacilli (IM862 50 to 100 μg every other day, 2 months after the course, 37 patients). Also, the “healing earlier than control groups” value with Herpes Zoster (IM862 with interferon, on the average) is 40%. In addition, in assay [3] (IM862 1 μg/kg), the “decrease of treatment duration compared to controls” value is “up to 1.7 times”. In addition, the “sickness rate for 12 months” value with flu (IM862 50 μg, 268 persons) is “significant decrease of sickness rate”.
